Results published in US9144595B2, “APLs for treating arthritis” (University of Tennessee Research Foundation, priority 2009, dated 2015).

Columns and labels:
TCR-ζ chain = experiment: Phosphorylation of the TCR-ζ chain in CII-specific CD4+ T cells; type: cell-based, mouse; details: CD4+ T cells cultured with peptide-pulsed APCs; FIG. 4
Description: Purified CD4+ cells from the DR1-TCR tg mice are an excellent source of cells to explore the intracellular signaling pathways induced by either A2 or A12. In preliminary experiments we precipitated proteins with an antibody specific for CD3-ζ (34) to examine for the presence of phosphorylated proteins.
CD4+T cells were cultured with APC's pulsed with the wild-type peptide (WT), A12, or no antigen (No Ag). Proteins were immunoprecipitated with […] of affinity-purified anti-TCR-ζ antibody. The immunoprecipitates were separated by SDS-12%-PAGE, and transferred to nitrocellulose membrane. The membrane was blotted with monoclonal anti-phosphotyrosine antibody (α-pTyr). The positions of the phosphorylated-TCR-ζ are shown by arrows 410, 415. The 21 kDa and 23 kDa bands were not detected in immunoprecipitates from a B cell lymphoma line (data not shown). Bands for the total amount of zeta protein were identical for all three columns. Arrows 410 and 415 are shown denoting 21 kDa and 23 kDa bands, respectively. […] The bands are for No Ag 440, Wt 445, and A12 450. The bands are shown: Wt 425, No Ag 435, A12 430. Bands for zeta protein are shown: No Ag 455, Wt 460, and A12 465.

RA PBMC = experiment: Stability of HC Peptide 1 stored at 4° C., tested on IFNγ production by RA PBMC; type: cell-based, human
Description: Approximately 70% of the patients screened should have one or more of the RA shared epitope alleles. If the trend we saw in the small preliminary data sample holds true for the larger sample size, the majority of APL A12 responders will have one or more of the shared epitopes. […] Each month we will prepare a fresh stock solution of APL A12 dissolved in PBS, filter sterilized and stored at 4° C. APL A12 stored at 4° C. in solution retains it biologic activity for >30 days. A fresh solution of α1(II) will also be prepared each month and stored at 4° C. and handled using sterile technique.
HC Peptide 1 was dissolved in phosphate buffered saline and stored at 4° C. for up to five months and then tested and compared in vitro with freshly prepared HC Peptide 1 to inhibit IFNγ production by RA patients PBMC stimulated by α1(II).

[1] = test system: Spleen tyrosine kinase (Syk); experiment: Syk phosphorylation in CD4+ T cells of DR1/TCR transgenic mice (flow cytometry); type: cell-based, mouse; details: APCs prepulsed with peptide, compared with media controls
From the text: Since T cells clearly responded to A12 differently than to the wild type A2 peptide, we analyzed them for the possibility that they might be utilizing an alternative signaling pathway. Spleen tyrosine kinase (Syk), a kinase ordinarily utilized by B cells was selected for further analysis. In these experiments, CD4^+ T-cells from the DR1/TCR transgenic mice were purified by negative selection (using a Miltenyi kit) and stained with an antibody specific for phospho Syk following exposure to APCs prepulsed with either A2 or A12. […] Histograms were generated using flow cytometry with gating specifically on the CD4^+ population, confirming that the changes observed were produced by T-cells.
FIGS. 5A and 5B show T cell signaling induced by A2 and A12. Flow cytometry was performed using purified CD4+ T cells from spleens of DR1 TCR Tg mice. The T cells were stimulated by APCs pre-pulsed with A2, A12 or no peptide (Control) for 5 minutes. The cells were then fixed, permeabilized, and stained with an antibody specific for phospho-Syk (Tyr 323) (left panel) or phospho-ERK 1/2 (right panel) and analyzed by flow cytometry. Both plots are gated on CD4 T cells. Axes 510, 540, show the number of events and axes 515, 545 show a logarithmic scale for Anti-phospho Erk and Syk respectively, for FIGS. 5A and 5B. In FIG. 5A line 520 is for A2 peptide, line 525 is the control, and line 530 is the A12 peptide. […]

Sequence: LGPKGQTGEBGIAGAKGDQGPKGEBGPA [APL A12]
- TCR-ζ chain phosphorylation (TCR-ζ chain): did not significantly activate
- IFNγ Concentration in PBMC Supernatants (RA PBMC; A12 0.1 μg/ml + PBS, A12 stored at 4° C. 6 Days): 26 pg/mL
- IFNγ Concentration in PBMC Supernatants (RA PBMC; A12 0.1 μg/ml + PBS, A12 stored at 4° C. 78 Days): 0 pg/mL
- IFNγ Concentration in PBMC Supernatants (RA PBMC; A12 0.1 μg/ml + PBS, A12 stored at 4° C. 143 Days): 0 pg/mL
- IFNγ Concentration in PBMC Supernatants (RA PBMC; A12 0.1 μg/ml + α1(II) 50 μg/ml, A12 stored at 4° C. 6 Days): 45 pg/mL
- IFNγ Concentration in PBMC Supernatants (RA PBMC; A12 0.1 μg/ml + α1(II) 50 μg/ml, A12 stored at 4° C. 78 Days): 10 pg/mL
- IFNγ Concentration in PBMC Supernatants (RA PBMC; A12 0.1 μg/ml + α1(II) 50 μg/ml, A12 stored at 4° C. 143 Days): 22 pg/mL
- IFNγ Concentration in PBMC Supernatants (RA PBMC; A12 1 μg/ml + PBS, A12 stored at 4° C. 6 Days): 10 pg/mL
- IFNγ Concentration in PBMC Supernatants (RA PBMC; A12 1 μg/ml + PBS, A12 stored at 4° C. 78 Days): 0 pg/mL
- IFNγ Concentration in PBMC Supernatants (RA PBMC; A12 1 μg/ml + PBS, A12 stored at 4° C. 143 Days): 0 pg/mL
- IFNγ Concentration in PBMC Supernatants (RA PBMC; A12 1 μg/ml + α1(II) 50 μg/ml, A12 stored at 4° C. 6 Days): 23 pg/mL
- IFNγ Concentration in PBMC Supernatants (RA PBMC; A12 1 μg/ml + α1(II) 50 μg/ml, A12 stored at 4° C. 78 Days): 37 pg/mL
- IFNγ Concentration in PBMC Supernatants (RA PBMC; A12 1 μg/ml + α1(II) 50 μg/ml, A12 stored at 4° C. 143 Days): 6 pg/mL
- IFNγ Concentration in PBMC Supernatants (RA PBMC; A12 10 μg/ml + PBS, A12 stored at 4° C. 6 Days): 0 pg/mL
- IFNγ Concentration in PBMC Supernatants (RA PBMC; A12 10 μg/ml + PBS, A12 stored at 4° C. 78 Days): 0 pg/mL
- IFNγ Concentration in PBMC Supernatants (RA PBMC; A12 10 μg/ml + PBS, A12 stored at 4° C. 143 Days): 0 pg/mL
- IFNγ Concentration in PBMC Supernatants (RA PBMC; A12 10 μg/ml + α1(II) 50 μg/ml, A12 stored at 4° C. 6 Days): 77 pg/mL
- IFNγ Concentration in PBMC Supernatants (RA PBMC; A12 10 μg/ml + α1(II) 50 μg/ml, A12 stored at 4° C. 78 Days): 82 pg/mL
- IFNγ Concentration in PBMC Supernatants (RA PBMC; A12 10 μg/ml + α1(II) 50 μg/ml, A12 stored at 4° C. 143 Days): 21 pg/mL
- stability: ability to inhibit IFNγ production by α1(II) stimulated RA PBMC after storage (RA PBMC; dissolved in phosphate buffered saline, stored at 4° C. for up to 5 months): retained its ability to inhibit IFNγ production
- time for which biologic activity is retained (RA PBMC; stored at 4° C. in solution (PBS)): > 30 days
- Syk phosphorylation [1]: induced significant Syk phosphorylation
